Laboratory results reported in patent US9284271B2, “Compounds for the treatment of neurodegenerative diseases” (Katholieke Universiteit Leuven, K.U. Leuven R&D, priority 2010, dated 2016).
pEC50: −log10 of the molar value.

Tested on: M17-TAU P301L cells
Assay: Tau-induced toxicity experiment: LDH leakage of retinoic acid incubated M17-TAU P301L cells
Assay type: cell-based
Conditions: Homo sapiens, Neuroblastoma cell, 168 h; reduction of LDH activity of retinoic acid incubated M17-TAU P301L neuroblastoma cells; 7 days incubation; Promega Cytotox 96 assay
From the text: A TAU expression plasmid was constructed by sub-cloning the cDNA of human TAU-P301L (encoding for TAU with proline 301 substituted by a leucine residue) into mammalian expression vector pcDNA3.1 resulting in plasmid pcDNA3.1-TAU P301L. Plasmids pcDNA3.1 and pcDNA3.1-TAU P301L were transfected to human neuroblastoma cells ([…]; ATCC No. CRL-2267) and independent clonal lines with the plasmids stably integrated into the genome were selected. […] Expression of the TAU P301L genes in the cell lines was confirmed by Western analysis.
In degenerated or dead cells lactate dehydrogenase (LDH) is leaked out of the cells into the extracellular environment due to a loss of plasma-membrane integrity. This principle was used to determine cytotoxicity by quantifying the level of leaked LDH into the growth medium.
The detailed method for determining TAU cytotoxicity was as follows: From appropriate precultures of M17-3.1 and M17-TAU(P301L) cells were seeded at 2500 cells/cm2 in Optimem Reduced Serum without phenol red (Gibco, Cat. 31985-047) supplemented with 1% fetal calf serum, 1 mM sodium pyruvate, 1× non-essential amino acids, 500 μg/ml G418 0.5× antibiotic/antimycotic. After 3 h of incubation at 37° C./5% CO2 1 volume of Optimem Reduced Serum (same as described above; except without fetal calf serum) supplemented with 2.5 μM retinoic acid (RA) was added. The cells were further incubated for 7 days. Subsequently, LDH activity was determined using Promega Cytotox 96 Non-Radioactive cytotoxicity assay, (Cat. G1780) according the supplier's instructions.
The M17-TAU P301L cell line made it possible to assess the ability of novel compounds to counteract TAU cytotoxicity. […] These measurements were used to calculate EC50 values of table 2.
Exemplary compounds of the present invention are shown in table 2, with their chemical name and their EC50 value (expressed in nM) as determined from example 75 in the Tau-induced toxicity experiment.

| SMILES | pEC50 |
| --- | --- |
| O=C(NCCc1c[nH]c2ccc(Cl)cc12)c1ccc(-c2cccc(Cl)c2)cc1 [Cpd059, 3′-chloro-N-(2-(5-chloro-1H-indol-3-yl)ethyl)biphenyl-4-carboxamide] | 6.89 |
| Cc1cccc(-c2cccc(C(=O)NCCc3c[nH]c4ccc(Cl)cc34)c2)c1 [Cpd019, N-(2-(5-chloro-1H-indol-3-yl)ethyl)-3′-methylbiphenyl-3-carboxamide] | 6.15 |
| O=C(NCCc1c[nH]c2ccc(Cl)cc12)c1ccc(-c2cccc(C(F)(F)F)c2)cc1 [Cpd066, N-(2-(5-chloro-1H-indol-3-yl)ethyl)-3′-(trifluoromethyl)biphenyl-4-carboxamide] | 7.04 |
| O=C(NCCc1c[nH]c2ccc(Cl)cc12)c1ccc(-c2ccccc2F)cc1 [Cpd037, N-(2-(5-chloro-1H-indol-3-yl)ethyl)-2′-fluorobiphenyl-4-carboxamide] | 7.21 |
| Cc1cccc(C)c1-c1ccc(C(=O)NCCc2c[nH]c3ccc(Cl)cc23)cc1 [Cpd011, N-(2-(5-chloro-1H-indol-3-yl)ethyl)-2′,6′-dimethylbiphenyl-4-carboxamide] | 6.63 |
| O=C(NCCc1c[nH]c2ccc(Cl)cc12)c1ccnc(N2CCOCC2)c1 [Cpd006, N-(2-(5-chloro-1H-indol-3-yl)ethyl)-2-morpholinoisonicotinamide] | 6.06 |
| O=C(NCCc1c[nH]c2ccc(Cl)cc12)c1cccc(-c2ccncc2)c1 [Cpd045, N-(2-(5-chloro-1H-indol-3-yl)ethyl)-3-(pyridin-4-yl)benzamide] | 6.49 |
| O=C(NCCc1c[nH]c2ccc(Cl)cc12)c1cccc(-c2ccccc2F)c1 [Cpd036, N-(2-(5-chloro-1H-indol-3-yl)ethyl)-2′-fluorobiphenyl-3-carboxamide] | 6.86 |
| O=C(NCCc1c[nH]c2ccc(Cl)cc12)c1cccc(-c2ccccc2C(F)(F)F)c1 [Cpd065, N-(2-(5-chloro-1H-indol-3-yl)ethyl)-2′-(trifluoromethyl)biphenyl-3-carboxamide] | 7.05 |
| N#Cc1cccc(-c2ccc(C(=O)NCCc3c[nH]c4ccc(Cl)cc34)cc2)c1 [Cpd050, N-(2-(5-chloro-1H-indol-3-yl)ethyl)-3′-cyanobiphenyl-4-carboxamide] | 7.62 |
| O=C(NCCc1c[nH]c2ccc(Cl)cc12)c1ccc(-c2cccc(F)c2)cc1 [Cpd039, N-(2-(5-chloro-1H-indol-3-yl)ethyl)-3′-fluorobiphenyl-4-carboxamide] | 6.86 |
| O=C(NCCc1c[nH]c2ccc(Cl)cc12)c1ccccc1-c1ccc(F)cc1 [Cpd040, N-(2-(5-chloro-1H-indol-3-yl)ethyl)-4′-fluorobiphenyl-2-carboxamide] | 6.68 |
| O=C(NCCc1c[nH]c2ccc(Cl)cc12)c1cccc(-c2ccccc2Cl)c1 [Cpd055, 2′-chloro-N-(2-(5-chloro-1H-indol-3-yl)ethyl)biphenyl-3-carboxamide] | 6.80 |
| COc1cccc(-c2ccccc2C(=O)NCCc2c[nH]c3ccc(Cl)cc23)c1 [Cpd029, N-(2-(5-chloro-1H-indol-3-yl)ethyl)-3′-methoxybiphenyl-2-carboxamide] | 6.28 |
| COc1ccc(-c2cccc(C(=O)NCCc3c[nH]c4ccc(Cl)cc34)c2)cc1 [Cpd033, N-(2-(5-chloro-1H-indol-3-yl)ethyl)-4′-methoxybiphenyl-3-carboxamide] | 6.65 |
| Cc1ccc(-c2ccccc2C(=O)NCCc2c[nH]c3ccc(Cl)cc23)cc1C [Cpd071, N-(2-(5-chloro-1H-indol-3-yl)ethyl)-3′,4′-dimethylbiphenyl-2-carboxamide] | 6.26 |
